The test system of one data set is oilseed rape. The experiment in a line: Safening oilseed rape using a variety of safening compounds of classes (a) to (f) with herbicides. Type of data set: in vivo. The note with it: herbicide Bifenox (with insecticide cypermethrin). The source says: Safening compounds were selected from the list of compounds below. The compounds used are highlighted in bold. • (a) Glucose (GL), hydrolysed starch, sucrose (S), fructose (FR), glycerol (G), glyceraldehydes, erythrose, ribulose, xylulose or arabinose or an ester or glycoside or metabolic equivalent of such a carbohydrate; • (b) an organic acid of the Krebs Tricarboxylic Acid Cycle or a metabolic precursor thereof (including citric (C), succinic (SU), malic, pyruvic, acetic and fumaric acids); • (c) a vitamin or coenzyme, eg thiamine (T), riboflavin (R), pyridoxine (P), pyridoxamine, pyridoxal, nicotinamide (N), folic acid (F), ascorbic acid (AA), Biotin (B) and vitamin B12 (B12) or a precursor thereof including nicotinic acid • (d) a purine or pyrimidine nucleoside, nucleotide or a metabolic precursor thereof, eg adenine, adenosine, thymine, thymidine, cytosine, guanine, guanosine, hypoxanthine, uracil, uridine or inosine, to act as structural precursors for nucleic acid synthesis. • (e) a naturally occurring fat or oil including olive, soya, coconut and corn (Oil) oils; • (f) an amino acid of a type that occurs naturally in plant proteins, eg glycine (GLY), alanine (AL), valine, leucine (LE), isoleucine, serine, threonine (THR), cysteine (CY), methionine (ME), aspartic acid, glutamic acid, glutamine (GLU), asparagine (AS), lysine (LY), hydroxylysine, arginine, histidine, phenylalanine, tyrosine, tryptophan, proline, or hydroxyproline. Statistical Layout: Randomised Complete Block trial, under glasshouse conditions, United Kingdom.

A further data set concerns Winter wheat cv Alchemy. The experiment in a line: Safening of herbicides from addition of auxin/auxin precursor and acetaminophen, winter wheat. The note with it: auxins/precursors 10^-2 Molar, AC 3 g per hectare, 0-9 scale, 0=dead plant.
The next data set deals with Soybean. The experiment in a line: Root nodulation and safening, soybean, compost of low pH (Example 7.1). The source says:
(§1) The safener/safening system and the fertiliser were applied to the crops either simultaneously or sequentially.
(§2) Co=100% Cobalt Sulphate (20 g per litre and per hectare). FF1=20 g per litre Cobalt Sulphate (as per Co above) plus “Miracle-Gro” at xl recommended rate (applied at 15 g per 2.5 sq metres). Miracle-Gro contains: 24% N, 4% P, 13% K, plus 0.02% B, 0.03% Cu, 0.19% Fe, 0.05% Mn, 0.001% Mo and 0.03% Zn. FF2=20 g per litre Cobalt Sulphate plus Miracle-Gro at ×2 recommended rate. SAF: at least one from class (f) each at <3 g/l, plus at least one from class (c).
Scored/Counted+28 Days After Spraying. Sown in Compost of low pH (5.0-5.5) on 1 May 2008. Spray Date (VC)=4 June, V1 Date=20 June. Scored/Measured on 17 July. […] Seed density approx 110 kg/ha. Soybean treated with standard inoculant at sowing.

The test system of the next data set is Glycine max (Soybean). Briefly: Root nodulation and safening, soybean, compost of normal pH (Example 7.2). The note with it: compost of normal pH (6.5).
Source text: as §1, §2
Dates as per Example 7.1 above, but sown in compost of normal pH (6.5). Each treatment represents the mean values for 12 plants, within four replicates. Sowing density 110 kg/ha. Standard inoculant applied at sowing.

Data set [1] has as its system NAVY BEAN cv Mogex. Briefly: Root nodulation and safening, navy bean, compost of low pH (Example 7.3). To be noted: compost of low pH (5.0-5.5).
Source text: as §1, §2
NAVY BEAN cv Mogex. Scored/Counted+28 Days after Spraying. Sown in Compost of low pH (5.0-5.5) on 29 Apr. 2008. Spray Date (VC)=27 May, V1 Date=16 June. Scored/Measured on 11 July. Each treatment represents the mean value of 12 plants, within four replicates. No inoculum applied.

The test system of data set [2] is NAVY BEAN cv Mogex. Briefly: Root nodulation and safening, navy bean, compost of normal pH (Example 7.4). The note with it: compost of normal pH (6.5).
Source text: as §1, §2
NAVY BEAN cv Mogex. Scored/Counted+28 Days after Spraying. Dates as per Example 7.3 Above, but sown in compost of normal pH (6.5). Each treatment represents the mean value from 12 plants, within four replicates. No inoculum applied.

In data set [3] the test system is PEA cv Ragtime. The experiment in a line: Root nodulation, rooting and safening, pea, compost of low pH (Examples 7.5 and 7.7).
Source text: as §1, §2
PEA—TRIAL 5—cv Ragtime. Scored/Counted+28 Days after Spraying. Sown in Compost of Low pH (5.0-5.5) on 28 Apr. 2008. Spray Date (VC)=26 May, V1 Date=14 June. Scored/Measured on 9 July. […] No inoculum applied.
Sowing details etc as per Example 7.5.

Data set [4] deals with PEA cv Ragtime. The experiment in a line: Root nodulation and safening, pea, compost of normal pH (Example 7.6). The note with it: compost of normal pH (6.5).
Source text: as §1, §2
PEA—TRIAL 7.6—cv Ragtime. Dates as per Example 7.5 above, but sown in compost of normal pH (6.5). […] No inoculum was applied.

The mark [5] stands for this setting: Soybean, compost of low pH (5.0-5.5), V1, score 0-9.
[6] abbreviates: V1, +28 days after spraying, no inoculum.
Where [7] appears, read: compost of low pH (5.0-5.5), V1, score 0-9.
Where [8] appears, read: low pH compost, application at V1, 0-9 scale.

On to `Nc1ccccc1C(=O)O` [2. AN (Anthranilic Acid)], for which, in the data set on oilseed rape (score 0-9, 0 = Dead, 14 days), the “Phytotoxicity (0-9) (0 = Dead) + 14 Days” value came out at 8.0 and the “Vigour (0-9) (0 = Dead) + 14 days” value was determined as 8.0. In the data set on oilseed rape (score 0-9, 0 = Dead, 28 days), the “Phytotoxicity (0-9) (0 = Dead) + 28 Days” value stood at 8.0 and the “Vigour (0-9) (0 = Dead) + 28 Days” value turned out to be 8.0. In addition, the “Rooting (0-9) (9 = Best Rooting) + 28 Days” value with oilseed rape (score 0-9, 9 = Best Rooting, 28 days) amounted to 8.0.
Consider `Nc1ccccc1C(=O)O` [Anthranilic acid (AN)], for which, in the data set with Winter wheat cv Alchemy (14 days after spraying), the “Phytotoxicity (0-9) (0 = Dead) + 14 Days” value is listed as 8.0. For the same compound, the “Phytotoxicity (0-9) (0 = Dead) + 28 Days” value in the data set with Winter wheat cv Alchemy (28 days after spraying) turned out to be 8.0.
In the case of `O=S(=O)([O-])[O-].[Co+2]` [cobalt, Cobalt Sulphate], the “Nodules Per Plant (V1)” value is reported as 27.3 in the data set on Soybean (Soybean, compost of low pH (5.0-5.5), V1, +28 days after spraying, mean of 12 plants); 29.8 with Glycine max (Soybean) (V1, mean of 12 plants); 21.0 with NAVY BEAN cv Mogex [1] (setting [6]); 33.5 in the data set with NAVY BEAN cv Mogex [2] (setting [6]); 16.4 in the data set on PEA cv Ragtime [3] (compost of low pH (5.0-5.5), V1, +28 days after spraying, no inoculum); 16.4 in the data set with PEA cv Ragtime [3] (low pH compost, application at V1 (data from Example 7.5)). Also, the “Nodules Per Plant (V1)” value with PEA cv Ragtime [4] (V1, no inoculum) is listed as 16.9. The “Nodulation Score (0-9) (V1)” value in the data set with Soybean (setting [5]) amounted to 5.2; in the data set with Glycine max (Soybean) (V1, score 0-9), 5.5; in the data set on NAVY BEAN cv Mogex [1] (V1, score 0-9), 3.3; with NAVY BEAN cv Mogex [2] (V1, score 0-9) it was 5.2; in the data set on PEA cv Ragtime [3] (setting [7]), 5.0; in the data set on PEA cv Ragtime [3] (setting [8]), 5.0. In addition, the “Nodulation Score (0-9) (V1)” value with PEA cv Ragtime [4] (V1, score 0-9) came to 5.1. The “Phyto-Toxicity Score (0-9) (V1)” value in the data set on Soybean (setting [5]) is listed as 7.8; in the data set with Glycine max (Soybean) (V1, score 0-9), 8.0; in the data set with NAVY BEAN cv Mogex [1] (V1, score 0-9) it was 5.7; with NAVY BEAN cv Mogex [2] (V1, score 0-9) it was 7.3; in the data set with PEA cv Ragtime [3] (setting [7]), 5.1; in the data set with PEA cv Ragtime [3] (setting [8]), 5.1. In addition, the “Phyto-Toxicity Score (0-9) (V1)” value in the data set on PEA cv Ragtime [4] (V1, score 0-9) is recorded as 6.9. Also, the “Vigour Score (0-9) (V1)” value with Soybean (setting [5]) amounted to 6.0; with Glycine max (Soybean) (V1, score 0-9), 6.5; in the data set with NAVY BEAN cv Mogex [1] (V1, score 0-9), 5.9; in the data set on NAVY BEAN cv Mogex [2] (V1, score 0-9) it was 7.2; in the data set with PEA cv Ragtime [3] (setting [7]) it was 5.8; in the data set with PEA cv Ragtime [4] (V1, score 0-9), 6.8. The “Nodules Per Plant (VC)” value turned out to be 28.8 in the data set with Soybean (Soybean, compost of low pH (5.0-5.5), VC, +28 days after spraying); 28.0 in the data set on Glycine max (Soybean) (VC); 23.8 in the data set with NAVY BEAN cv Mogex [1] (VC); 31.8 with NAVY BEAN cv Mogex [2] (VC); 18.1 in the data set with PEA cv Ragtime [3] (compost of low pH (5.0-5.5), VC); 17.4 in the data set on PEA cv Ragtime [4] (VC). For the same compound, the “Nod Score (0-9) (VC)” value in the data set with Soybean (Soybean, compost of low pH (5.0-5.5), VC, score 0-9) was 5.4; with Glycine max (Soybean) (VC, score 0-9), 5.3; in the data set with NAVY BEAN cv Mogex [1] (VC, score 0-9) it was 3.8; in the data set on NAVY BEAN cv Mogex [2] (VC, score 0-9) it was 5.0; in the data set on PEA cv Ragtime [3] (compost of low pH (5.0-5.5), VC, score 0-9) it was 5.3; in the data set on PEA cv Ragtime [4] (VC, score 0-9), 5.2. Moreover, the nodulation result in the data set with Soybean (nitrogen fixing crops) is listed as “increases nodulation”. Besides, in the data set on PEA cv Ragtime [3] (setting [8]), the “Rooting Score (0-9) (V1)” value is listed as 4.2.
